Test results: patent US5849525A, “Compositions corresponding to a proton-coupled peptide transporter and methods of making and using same” (Brigham and Women's Hospital, Inc., priority 1995, dated 1998)
Square brackets hold non-standard residues; d marks the D form. Peptide text beside a SMILES is read from it. Sar = CNCC(=O)O

Tests used:
[1] = target: proton-coupled peptide transporter derived from rabbit (rabbit)
[2] = target: proton-coupled peptide transporter derived from rabbit (rabbit); remark: listed apart in the source
[3] = target: T1, proton-coupled peptide transporter (Oryctolagus cuniculus, UniProt P36836); assay: Two-electrode voltage clamp of Xenopus laevis oocytes injected with transporter cRNA: substrate-evoked inward currents and Km; format: cell-based, rabbit; details: uptake solution pH 5.5
T1 construct: Xenopus laevis oocytes were injected with cRNA coding the proton-coupled peptide transporter; expressed in transfected cells; host or cells: Xenopus laevis oocytes injected with cRNA transcribed in vitro from the cloned cDNA
T1 sequence (P36836 1-707): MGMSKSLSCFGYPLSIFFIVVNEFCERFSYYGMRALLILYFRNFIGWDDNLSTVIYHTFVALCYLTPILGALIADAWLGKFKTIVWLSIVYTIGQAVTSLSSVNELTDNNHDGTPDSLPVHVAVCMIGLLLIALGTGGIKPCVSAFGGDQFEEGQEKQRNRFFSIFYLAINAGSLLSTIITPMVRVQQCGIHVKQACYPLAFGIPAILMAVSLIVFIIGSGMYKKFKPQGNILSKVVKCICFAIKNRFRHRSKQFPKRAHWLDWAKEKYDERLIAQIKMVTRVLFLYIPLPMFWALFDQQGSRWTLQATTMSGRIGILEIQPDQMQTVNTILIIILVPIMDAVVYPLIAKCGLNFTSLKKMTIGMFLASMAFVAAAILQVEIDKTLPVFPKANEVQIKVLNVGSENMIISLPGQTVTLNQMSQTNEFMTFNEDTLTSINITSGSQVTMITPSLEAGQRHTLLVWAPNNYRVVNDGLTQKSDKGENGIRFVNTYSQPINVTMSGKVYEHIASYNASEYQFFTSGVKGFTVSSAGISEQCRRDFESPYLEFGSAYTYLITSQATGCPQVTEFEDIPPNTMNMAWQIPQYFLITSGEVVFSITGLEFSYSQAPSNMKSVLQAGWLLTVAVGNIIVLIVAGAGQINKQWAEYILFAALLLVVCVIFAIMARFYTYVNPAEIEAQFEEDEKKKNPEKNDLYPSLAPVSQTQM
Description: These oocytes were subjected to two electrode voltages clamp analysis (Gene Clamp 500, Axon Instruments, California) in the manner described in Kanaisy & Hediger, M. A. Nature 360, 467-71 (1992).
FIG. 9 depicts electrophysiological measurements of transformed cocytes as a percent of glycyl-sarcosine evoked current. Data representing glycyl-sarcosine are depicted as a solid black bar. Data representing peptide are depicted with dotted bars. Data representing antibiotics are depicted with hatched bars.
By altering peptide concentrations, current amplitudes for different compositions, Km values were determined.

[4] = target: T1, proton-coupled peptide transporter; assay: Intracellular pH (pH-sensitive microelectrode) and membrane potential of cRNA-transformed oocytes; format: cell-based, rabbit; details: pHo 5.5 solution, Gly-Sar 10 mM; for membrane potential Vm after application: depolarized from -20 mV
Description: The example describes hydrogen ion cotransport by Xenopus laevis oocytes transformed with cRNA coding a proton-coupled peptide transporter. Transformed Xenopus laevis oocytes of Example 5 and 6 were implanted with microelectrodes and membrane potential set with electrodes.
Internal pH measurements were taken with microelectrodes, silanized borosilicate pipettes with tips filled with a hydrogen ionophore (I-cocktail B, Fluka). […] After washing with uptake solution without glycyl-sarcosine, each oocyte was clamped at this membrane potential. […] The equation used to calculate the electrochemical potential difference for H^+ (ΔμH) was ΔμH +=RT 1n ([H^+ ] i/[H^+ ]o)+zF (Vi -Vo) and that for Gly-Sar (ΔμGly-Sar) was ΔμGly-Sar =RT 1n ([Gly-Sar] i/ [Gly-Sar]o), where; R is the gas constant, T the absolute temperature (295° K.), F is Faraday's constant, pHi and pHo the intra- and extracellular pH, Gly-Sari and Gly-Saro, the intra-and extracelluar Gly-Sar concentrations, and z the valency.
Oocytes were initially kept in pH 7.4 medium (96 mM NaCl, 1 mM KCl, 1.8 mM CaCl2, 1.0 mM MgCl2 and 5 HEPES). […] In water-injected oocytes, lowering pHo from 7.4 to 5.5 caused a continuous pHi decrease which was not dependent on the expression of the proton-coupled peptide transporter.

[5] = target: T1, proton-coupled peptide transporter; assay: Uptake of C14-glycyl-sarcosine by Xenopus laevis oocytes injected with rabbit jejunum poly(A)+ RNA or transporter cRNA; format: cell-based; details: 100 μM C14-Gly-Sar, 1 hour, pH 5.5
Procedure: This example describes the uptake of radiolabeled glycyl-sarcosine (C^14 -Gly-Sar) by Xenopus laevis oocytes injected with poly(A)^+ RNA from rabbit jejunum or with cRNA synthesized by in vitro transcription of proton-coupled peptide transporter cDNA.
All uptakes in this and the following figures were performed with 6-8 oocytes, 3 days after injection. RNA-injected oocytes were injected with 25 ng cRNA in 50 nl.
Oocytes injected with cRNA coding a proton-coupled peptide transporter were incubated for 1 hour in uptake solution (100 mM NaCl, 2 mM KCl 1 mM MgCl2, 1 mM CaCl2, 3 mM HEPES, 3 mM MES, 3 mM Tris, pH 5.5) in the presence of 100 μM C^14 -glycol-sarcosine (specific radioactivity, 112 mCi/mmol, custom synthesized by the Radiochemical Center, Amersham, U.K.). The oocytes were rinsed with ice-cold washing solution (uptake solution with pH adjusted to 7.5 with Tris base) and the radioactivity of each oocyte was measured by scintillation counting.

[6] = target: T1, proton-coupled peptide transporter; assay: Hybrid depletion of rabbit small intestine poly(A)+ RNA with antisense/sense DNA oligonucleotide before oocyte injection, glycyl-sarcosine uptake; format: cell-based; details: oocytes receiving rabbit poly(A)+ RNA without sense or antisense nucleic acid
Description: This example describes hybrid depletion of rabbit small intestine poly(A)^+ RNA before injection into Xenopus laevis oocytes. A first admixture was formed of rabbit small intestine derived poly(A)^+ RNA and an antisense DNA oligonucleotide corresponding to the 5'-end coding region of cDNA corresponding to the proton-coupled peptide transporter.
A second admixture was formed of rabbit small intestine derived poly(A)^+ RNA and a sense DNA oligonucleotide corresponding to the same region as the antisense DNA. Both DNAs were twenty-three nucleotides in length. Rabbit jejunum poly(A)^+ RNA (0.5 μg/μl) was incubated with the oligonucleotide (0.25 μg/μl in the presence of 50 mM NaCl at 42° C. for one hour and then injected into oocytes. The uptake of the peptide, glycyl-sarcosine, was measured three days after injection.

[7] = target: T1, proton-coupled peptide transporter; assay: C14-glycyl-sarcosine uptake in cRNA-transformed oocytes in sodium-free or chloride-free solutions and at different pH; format: cell-based, rabbit
Description: This example describes the stoichiometry and voltage dependence of the proton-coupled peptide transporter. Four days after transformation with cRNA coding the proton-coupled peptide transporter, Xenopus laevis oocytes were examined in the presence of 1 mMC^14 -glycyl-sarcosine in standard uptake solution (pH 5.5), modified to be sodium or chloride ion free.
In sodium-free solutions, the sodium chloride was replaced with choline-chloride. In chloride free solutions, the sodium chloride was replaced with sodium nitrate.
Glycyl-sarcosine uptake was determined from the slope of the time-dependence of 1 to 5 minutes uptake. The results are depicted in bar graph form in FIG. 10. […] That is, the presence of or absence of sodium ion and the presence or absence of chloridion had little or no effect on glycyl-sarcosine uptake. In each instance the uptake was approximately 1000 pmol glycyl-sarcosine.
In this example Xenopus laevis oocytes transformed with cRNA coding the proton-coupled peptide transporter of the preceding example were evaluated for C^14 -glycyl-sarcosine uptake in the standard uptake solutions modified to different pH. Glycyl-sarcosine uptake was determined from the slope of time-dependence of 1 to 5 minute uptakes.

[8] = target: T1, proton-coupled peptide transporter; assay: Stoichiometry (uptake versus net charge flux) and cumulative C14-glycyl-sarcosine uptake in cRNA-transformed oocytes; format: cell-based, rabbit
Procedure: Internal pH measurements were taken with microelectrodes, silanized borosilicate pipettes with tips filled with a hydrogen ionophore (I-cocktail B, Fluka). The membrane potential was measured in uptake solution (pH 5.5) containing 1 mM glycyl-sarcosine. After washing with uptake solution without glycyl-sarcosine, each oocyte was clamped at this membrane potential. […] The equation used to calculate the electrochemical potential difference for H^+ (ΔμH) was ΔμH +=RT 1n ([H^+ ] i/[H^+ ]o)+zF (Vi -Vo) and that for Gly-Sar (ΔμGly-Sar) was ΔμGly-Sar =RT 1n ([Gly-Sar] i/ [Gly-Sar]o), where; R is the gas constant, T the absolute temperature (295° K.), F is Faraday's constant, pHi and pHo the intra- and extracellular pH, Gly-Sari and Gly-Saro, the intra-and extracelluar Gly-Sar concentrations, and z the valency.
This 1:1 coupling ratio is consistent with analysis of the coupling ratio based on thermodynamic considerations. Cumulative uptake of C^14 -glycyl-sarcosine was measured as depicted in FIG. 14.
Data represent the average of the uptakes from 20-24 oocytes after subtraction of the uptakes of water-injected oocytes. After a ten hour incubation in 1 mM non-radiolabeled 1 mM glycyl-sarcosine, the ^14 C-glycyl-sarcosine influx was 1754±403 (n=7) pmol/oocyte.

Xenopus laevis oocytes = assay: Thin-layer chromatography of solubilized oocytes incubated in 14C-Gly-Sar (hydrolysis); format: in vitro ADME; details: 1 mM 14C-Gly-Sar, pH 5.5, seven hours
[9] = substrate: CC1(C)S[C@@H]2[C@H](NC(=O)C3(N)CCCCC3)C(=O)N2[C@H]1C(=O)O; assay: cells, lysate or membranes; details: other: current amplitudes at altered substrate concentrations, pH 5.5, cRNA-injected oocytes
[10] = substrate: NCC(=O)NCC(=O)NCC(=O)O; assay: cells, lysate or membranes; details: other: current amplitudes at altered substrate concentrations, pH 5.5, cRNA-injected oocytes
[11] = substrate: CC(C)C[C@H](NC(=O)CN)C(=O)O; assay: cells, lysate or membranes; format: cell-based, rabbit; details: other: current amplitudes at altered substrate concentrations, pH 5.5, cRNA-injected oocytes
[12] = substrate: CN(CC(=O)O)C(=O)CN; assay: cells, lysate or membranes; format: cell-based, rabbit; details: other: current amplitudes at altered substrate concentrations, pH 5.5, cRNA-injected oocytes
[13] = substrate: C[C@H](N)C(=O)N[C@@H](CC(=O)O)C(=O)O; assay: cells, lysate or membranes; format: cell-based, rabbit; details: other: current amplitudes at altered substrate concentrations, pH 5.5, cRNA-injected oocytes

Molecule: glycyl-sarcosine (peptide)
- Km from current amplitudes [1]: 1900 µM
- uptake of C14-glycyl-sarcosine by oocytes [2]: 200 pmol

Molecule: CC1=C(C(=O)O)N2C(=O)[C@@H](NC(=O)[C@H](N)c3ccc(O)cc3)[C@H]2SC1 [cefadroxil]
- substrate-evoked inward current [3]: Significant currents

Molecule: CC1(C)S[C@@H]2[C@H](NC(=O)C3(N)CCCCC3)C(=O)N2[C@H]1C(=O)O [Cyclacillin]
- substrate-evoked inward current [3]: inward current

Molecule: NCC(=O)O [glycine]
- effect on intracellular pH (pHi) [4]: no detectable response
- membrane potential Vm after application [4]: no detectable response

Molecule: CC1=C(C(=O)O)N2C(=O)[C@@H](NC(=O)[C@H](N)C3=CCC=CC3)[C@H]2SC1 [cephradine]
- substrate-evoked inward current [3]: Significant currents

Molecule: CN(CC(=O)O)C(=O)CN [Glycyl-sarcosine, glycyl-sarcosine] (H-Gly-[Sar]-OH)
- substrate-evoked inward current [3]: strongest current
- uptake of glycyl-sarcosine ([5]; oocytes receiving rabbit jejunum poly(A)+ RNA): less than 20 pmol
- uptake of glycyl-sarcosine ([5]; oocytes receiving transporter cRNA): ~200 pmol
- uptake of glycyl-sarcosine [6]: approximately 8 pmol
- glycyl-sarcosine uptake ([7]; 1 mM C14-glycyl-sarcosine, pH 5.5, presence or absence of sodium or chloride ion): approximately 1000 pmol
- pH of maximum glycyl-sarcosine uptake ([7]; standard uptake solutions modified to different pH): 5.5
- membrane potential Vm after application [4]: +15 mV
- effect on intracellular pH (pHi) ([4]; listed as Gly-Sar): large intracellular acidification
- effect on intracellular pH (pHi) ([4]; listed as glycyl-sarcosine): decrease in pH
- time to thermodynamic equilibrium of cumulative uptake ([8]; C14-glycyl-sarcosine, cRNA-transformed oocytes): approximately eight
- 14C-glycyl-sarcosine influx ([8]; after ten hour incubation in 1 mM non-radiolabeled glycyl-sarcosine, n=7): 1754±403 pmol/oocyte
- fraction of intracellular 14C-label that is hydrolyzed glycyl-sarcosine (Xenopus laevis oocytes): no more than one third

Molecule: CC(C)C[C@H](NC(=O)CN)C(=O)O [Glycyl-leucine]
- substrate-evoked inward current [3]: inward current

B1: proton-coupled peptide transporter (Oryctolagus cuniculus) (protein)
chain: T1 sequence (P36836 1-707)
notes: Xenopus laevis oocytes were injected with cRNA coding the proton-coupled peptide transporter; expressed in transfected cells; host or cells: Xenopus laevis oocytes injected with cRNA transcribed in vitro from the cloned cDNA
- Km [9]: 137 µM
- Km [10]: 5100 µM
- Km [11]: 81 µM
- Km [12]: 1900 µM
- Km [13]: 143 µM
